Laboratory results taken from ChEMBL document CHEMBL1158930, “3'-Formyl-2',4',6'-trihydroxy-5'-methyldihydrochalcone, a Prospective New Agrochemical from Psidium acutangulum” (1990).

How the values were obtained:
Format in all cases: functional
[1] = tested on: Heliothis virescens; test: Antifeedant activity in Heliothis virescens at 76.7 ug/cm'2 after 2 days relative to control
[2] = tested on: Heliothis virescens; test: Antifeedant activity in Heliothis virescens at 24.8 ug/cm'2 after 4 days relative to control
[3] = tested on: Heliothis virescens; test: Antifeedant activity in Heliothis virescens at 76.7 ug/cm'2 after 6 days relative to control
[4] = tested on: Heliothis virescens; test: Antifeedant activity in Heliothis virescens at 7.7 ug/cm'2 after 6 days relative to control
[5] = tested on: Heliothis virescens; test: Antifeedant activity in Heliothis virescens at 0.25 ug/cm'2 relative to dithane
[6] = tested on: Heliothis virescens; test: Antifeedant activity in Heliothis virescens at 24.8 ug/cm'2 after 2 days relative to control
[7] = tested on: Heliothis virescens; test: Antifeedant activity in Heliothis virescens at 24.8 ug/cm'2 after 6 days relative to control
[8] = tested on: Heliothis virescens; test: Antifeedant activity in Heliothis virescens at 76.7 ug/cm'2 after 4 days relative to control
[9] = tested on: Heliothis virescens; test: Antifeedant activity in Heliothis virescens at 7.7 ug/cm'2 after 2 days relative to control
[10] = tested on: Heliothis virescens; test: Antifeedant activity in Heliothis virescens at 7.7 ug/cm'2 after 4 days relative to control
[11] = tested on: Heliothis virescens; test: Antifeedant activity in Heliothis virescens at 247.5 ug/cm'2 after 2 days relative to control
[12] = tested on: Heliothis virescens; test: Antifeedant activity in Heliothis virescens at 247.5 ug/cm'2 after 4 days relative to control
[13] = tested on: Heliothis virescens; test: Antifeedant activity in Heliothis virescens at 247.5 ug/cm'2 after 6 days relative to control

Measured: Activity

Cc1c(O)c(C=O)c(O)c(C(=O)CCc2ccccc2)c1O
30%: [4] | [7]
90%: [1] | [5] | [6] | [11]
60%: all other assays above
